From US20030207813A1, “Retroviral protease inhibitor combinations” (priority 1995, published 2003)

Columns and labels:
HIV-1NL4-3 = experiment: microbe, parasite or virus in culture; format: cell-based; details: Human immunodeficiency virus 1, NL4
From the text: (§1) RF represents the HIV-1 strain HIV-LRF and RFR represents a mixture of resistant strains obtained by selection of RF against the compound of Example 1. […] RFR2 represents a mixture of resistant strains obtained by cloning RFR by three rounds of growth at limiting dilution. […] RFRR represents a mixture of resistant strains obtained by selection of RF against the compounds of Examples 1 and 2 and then cloning by three rounds of growth at limiting dilution. […] SF162 represents the HIV-1 strain SF-162 and SF162R represents a mixture of resistant strains obtained by selection of SF162 against the compound of Example 1. […] 89-959 represents the HIV-1 strain 89-959 and 89-959R represents a mixture of resistant strains obtained by selection of 89-959 against the compound of Example 2. […] NL4 represents the HIV-1 strain HIV-1NL4-3. NL4(G48V) represents a strain having a synthetically generated site-directed mutation in the protease from glycine to valine at amino acid position number 48. NL4(I84V) represents a strain having a synthetically generated site-directed mutation in the protease from isoleucine to valine at amino acid position number 84. NL4(R8Q,M46I) represents a strain having synthetically generated site-directed mutations in the protease from arginine to glutamine at amino acid position number 8 and methionine to isoleucine at amino acid position number 46.

NL4(G48V) = experiment: Viral isolate resistance assay per Markowitz et al., NL4(G48V); format: cell-based, HIV-1; details: Human immunodeficiency virus 1, Table 7
From the text: as §1

NL4(I84V) = experiment: Viral isolate resistance assay per Markowitz et al., NL4(I84V); format: cell-based, HIV-1; details: Human immunodeficiency virus 1, Table 7
From the text: as §1

NL4(R8Q,M46I) = experiment: Viral isolate resistance assay per Markowitz et al., NL4(R8Q,M46I); format: cell-based, HIV-1; details: Human immunodeficiency virus 1, read-out: Virus Isolate (EC50 nM) NL4(R8O, M46I)
From the text: (§2) RF represents the HIV-1 strain HIV-LRF and RFR represents a mixture of resistant strains obtained by selection of RF against the compound of Example 1. RFR comprises a mixture of viral strains having protease genotypes of G48V (14/40 clones); G48V, V82A (18/40 clones); G48V, L90S (2/40 clones); G48V, 154T, V82A (1/40 clones); G48M (1/40 clones); G48V, Q61H (1/40 clones); V13I, G48V (1/40 clones); G48V, F53L, V82A (1/40 clones); and G48V, V82A, C95Y (1/40 clones). RFR2 represents a mixture of resistant strains obtained by cloning RFR by three rounds of growth at limiting dilution. RFR2 comprises a mixture of viral strains having protease genotypes of G48V, V82A (13/15 clones); G17E, G48V, V82A (1/15 clones); and G48V, V82A, N37D, N88D (1/15 clones). RFRR represents a mixture of resistant strains obtained by selection of RF against the compounds of Examples 1 and 2 and then cloning by three rounds of growth at limiting dilution. RFRR comprises a mixture of viral strains having protease genotypes of G48V, 154T, L63P, V82A (7/9 clones); G48V, 154T, L63P, V82A, N88S (1/9 clones); and G48V, 154T, L63P, G73M, V82A (1/9 clones). SF162 represents the HIV-1 strain SF-162 and SF162R represents a mixture of resistant strains obtained by selection of SF162 against the compound of Example 1. SF162R comprises a mixture of viral strains having protease genotypes of M461, F53L, L63P, A71V, N88D (2/3 clones); and M46I, F53L, L63P, A71V, N88D, Q92R (1/3 clones). 89-959 represents the HIV-1 strain 89-959 and 89-959R represents a mixture of resistant strains obtained by selection of 89-959 against the compound of Example 2. 89-959R comprises a mixture of viral strains having protease genotypes of N88S (4/5 clones); and D25N, T26A, D30N, D37N, R41K, G73D, R87K, N88S (1/4 clones). NL4 represents the HIV-1 strain HIV-1NL4-3. NL4(G48V) represents a strain having a synthetically generated site-directed mutation in the protease from glycine to valine at amino acid position number 48. […]

NL4(P22-538) = experiment: Viral isolate resistance assay per Markowitz et al., NL4(P22-538); format: cell-based, HIV-1; details: Human immunodeficiency virus 1; Table 9; selected against Example 10, 22 passages; read-out: Virus Isolate (EC50 nM) NL4(P22-538)
From the text: as §2, with “48. NL4(I84V) represents a strain having a synthetically generated site-directed mutation in the protease from isoleucine to valine at amino acid position number 84. NL4(R8Q,M46I) represents a strain having synthetically generated site-directed mutations in the protease from arginine to glutamine at amino acid position number 8 and methionine to isoleucine at amino acid position number 46. NL4(P22-538) represents a mixture of resistant strains obtained by selection of HIV-1NL4-3 against the compound of Example 10 after 22 passages comprising protease genotypes M46I, L63P, A71V, V82F, I84V (4/10); M46I, L63P, V82F, I84V (3/10); and M46I, A71V, V82F, I84V (3/10). NL4(P37-538) represents resistant strains obtained by selection of HIV-1NL4-3 against the compound of Example 10 after 37 passages comprising protease genotype M46I, L63P, A71V, 184A. NL4(538/524) represents resistant strains obtained by selection of NL4(P22-538) against the compound of Example 5 after 24 passages comprising protease genotype M46I, L63P, A71V, 184A. NL4(538/P7-AG) represents a mixture of resistant strains obtained by selection of NL4(P22-538) against the compound of Example 12 after 7 passages comprising protease genotypes M46I, L63P, A71V, 184A; and V321, V82I. NL4(538/P24-AG) represents resistant strains obtained by selection of NL4(P22-538) against the compound of Example 12 after 24 passages comprising protease genotype M46I, L63P, A71V, 184A.” for “48.”

NL4(P37-538) = experiment: Viral isolate resistance assay per Markowitz et al., NL4(P37-538); format: cell-based, HIV-1; details: Human immunodeficiency virus 1; Table 9; selected against Example 10, 37 passages; read-out: Virus Isolate (EC50 nM) NL4(P37-538)
From the text: (§3) RF represents the HIV-1 strain HIV-LRF and RFR represents a mixture of resistant strains obtained by selection of RF against the compound of Example 1. RFR comprises a mixture of viral strains having protease genotypes of G48V (14/40 clones); G48V, V82A (18/40 clones); G48V, L90S (2/40 clones); G48V, 154T, V82A (1/40 clones); G48M (1/40 clones); G48V, Q61H (1/40 clones); V13I, G48V (1/40 clones); G48V, F53L, V82A (1/40 clones); and G48V, V82A, C95Y (1/40 clones). RFR2 represents a mixture of resistant strains obtained by cloning RFR by three rounds of growth at limiting dilution. RFR2 comprises a mixture of viral strains having protease genotypes of G48V, V82A (13/15 clones); G17E, G48V, V82A (1/15 clones); and G48V, V82A, N37D, N88D (1/15 clones). RFRR represents a mixture of resistant strains obtained by selection of RF against the compounds of Examples 1 and 2 and then cloning by three rounds of growth at limiting dilution. RFRR comprises a mixture of viral strains having protease genotypes of G48V, 154T, L63P, V82A (7/9 clones); G48V, 154T, L63P, V82A, N88S (1/9 clones); and G48V, 154T, L63P, G73M, V82A (1/9 clones). SF162 represents the HIV-1 strain SF-162 and SF162R represents a mixture of resistant strains obtained by selection of SF162 against the compound of Example 1. SF162R comprises a mixture of viral strains having protease genotypes of M461, F53L, L63P, A71V, N88D (2/3 clones); and M46I, F53L, L63P, A71V, N88D, Q92R (1/3 clones). 89-959 represents the HIV-1 strain 89-959 and 89-959R represents a mixture of resistant strains obtained by selection of 89-959 against the compound of Example 2. 89-959R comprises a mixture of viral strains having protease genotypes of N88S (4/5 clones); and D25N, T26A, D30N, D37N, R41K, G73D, R87K, N88S (1/4 clones). NL4 represents the HIV-1 strain HIV-1NL4-3. NL4(G48V) represents a strain having a synthetically generated site-directed mutation in the protease from glycine to valine at amino acid position number 48. NL4(I84V) represents a strain having a synthetically generated site-directed mutation in the protease from isoleucine to valine at amino acid position number 84. NL4(R8Q,M46I) represents a strain having synthetically generated site-directed mutations in the protease from arginine to glutamine at amino acid position number 8 and methionine to isoleucine at amino acid position number 46. NL4(P22-538) represents a mixture of resistant strains obtained by selection of HIV-1NL4-3 against the compound of Example 10 after 22 passages comprising protease genotypes M46I, L63P, A71V, V82F, I84V (4/10); M46I, L63P, V82F, I84V (3/10); and M46I, A71V, V82F, I84V (3/10). NL4(P37-538) represents resistant strains obtained by selection of HIV-1NL4-3 against the compound of Example 10 after 37 passages comprising protease genotype M46I, L63P, A71V, 184A. NL4(538/524) represents resistant strains obtained by selection of NL4(P22-538) against the compound of Example 5 after 24 passages comprising protease genotype M46I, L63P, A71V, 184A. NL4(538/P7-AG) represents a mixture of resistant strains obtained by selection of NL4(P22-538) against the compound of Example 12 after 7 passages comprising protease genotypes M46I, L63P, A71V, 184A; and V321, V82I. NL4(538/P24-AG) represents resistant strains obtained by selection of NL4(P22-538) against the compound of Example 12 after 24 passages comprising protease genotype M46I, L63P, A71V, 184A. NLA(P19-003) represents resistant strains obtained by selection of HIV-1^NL4-3 against the compound of Example 9 after 19 passages comprising protease genotype R8K, M46I. NL4(P34-003) represents resistant strains obtained by selection of HIV-1^NL4-3 against the compound of Example 9 after 34 passages comprising protease genotype R8K, M46I, L63P, A71V, L90M.
The viral isolate resistance results summarized in Tables 7-11 were generated according to the assay procedures described by Markowitz et al., Journal of Virology, vol. […]

NL4(538/524) = experiment: Viral isolate resistance assay per Markowitz et al., NL4(538/524); format: cell-based, HIV-1; details: Human immunodeficiency virus 1; Table 10; NL4(P22-538) selected against Example 5, 24 passages
From the text: as §3, with “NLA(P19-003) represents resistant strains obtained by selection of HIV-1^NL4-3 against the compound of Example 9 after 19 passages comprising protease genotype R8K, M46I. NL4(P34-003) represents resistant strains obtained by selection of HIV-1^NL4-3 against the compound of Example 9 after 34 passages comprising protease genotype R8K, M46I, L63P, A71V, L90M.” left out

NL4(538/P7-AG) = experiment: Viral isolate resistance assay per Markowitz et al., NL4(538/P7-AG); format: cell-based, HIV-1; details: Human immunodeficiency virus 1; Table 10; NL4(P22-538) selected against Example 12, 7 passages
From the text: as §3, with “NLA(P19-003) represents resistant strains obtained by selection of HIV-1^NL4-3 against the compound of Example 9 after 19 passages comprising protease genotype R8K, M46I. NL4(P34-003) represents resistant strains obtained by selection of HIV-1^NL4-3 against the compound of Example 9 after 34 passages comprising protease genotype R8K, M46I, L63P, A71V, L90M.” left out

NL4(538/P24-AG) = experiment: Viral isolate resistance assay per Markowitz et al., NL4(538/P24-AG); format: cell-based, HIV-1; details: Human immunodeficiency virus 1; Table 10; NL4(P22-538) selected against Example 12, 24 passages
From the text: as §3, with “NLA(P19-003) represents resistant strains obtained by selection of HIV-1^NL4-3 against the compound of Example 9 after 19 passages comprising protease genotype R8K, M46I. NL4(P34-003) represents resistant strains obtained by selection of HIV-1^NL4-3 against the compound of Example 9 after 34 passages comprising protease genotype R8K, M46I, L63P, A71V, L90M.” left out

NLA(P19-003) = experiment: Viral isolate resistance assay per Markowitz et al., NLA(P19-003); format: cell-based, HIV-1; details: Human immunodeficiency virus 1, read-out: Virus Isolate (EC50 nM) NLA(P19-003)
From the text: as §2

NL4(P34-003) = experiment: Viral isolate resistance assay per Markowitz et al., NL4(P34-003); format: cell-based, HIV-1; details: Human immunodeficiency virus 1; Table 11; selected against Example 9, 34 passages
From the text: as §2

Nc1cccc(CN2C(=O)N(Cc3cccc(N)c3)[C@H](Cc3ccccc3)[C@H](O)[C@@H](O)[C@H]2Cc2ccccc2)c1 [Example 13, [4R-(4α,5α,6β,7β)]-1,3-bis[(3-aminophenyl)methyl]hexahydro-5,6-dihydroxy-4,7-bis(phenylmethyl)-2H-1,3-diazepin-2-one]
EC90 (HIV-1NL4-3; Table 7, EC90, read-out: Virus Isolate (EC90 nM) NL4): 250 nM
EC50 (HIV-1NL4-3; Table 8, read-out: Virus Isolate (EC50 nM) NL4): 250 nM
EC90 (NL4(G48V)): 1000 nM
EC90 (NL4(I84V)): 6250 nM
EC50 (NL4(R8Q,M46I)): 750 nM
EC50 (NL4(P22-538)): 5000 nM
EC50 (NL4(P37-538)): > 31200 nM
EC50 (NL4(538/524)): > 31200 nM
EC50 (NL4(538/P7-AG)): > 31200 nM
EC50 (NL4(538/P24-AG)): > 31200 nM
EC50 (NLA(P19-003)): 1250 nM
EC50 (NL4(P34-003)): 1250 nM
